Laboratory results published in publication PMC10528299, “Targeting FAK/PYK2 with SJP1602 for Anti-Tumor Activity in Triple-Negative Breast Cancer” (Current Issues in Molecular Biology, 2023).

Assays:
Experiment in all cases: Eurofins kinase profiling
Format in all cases: biochemical
B-Raf(V599E)(h) = target: T1, B-Raf(V599E)(h) (Homo sapiens, UniProt P15056, V600E); details: read-out: residual kinase activity B-Raf(V599E)(h)
T1 construct: purchased Eurofins KinaseProfiler
Protocol: (§1) The kinase profiling analysis was performed at Eurofins (Poitiers, France). A total of 110 kinase assays were carried out according to Eurofins’ standard protocols. For protein kinase assays, the kinase activity was measured using Eurofins’ KinaseProfiler radiometric assay. In this assay, a panel of kinases was incubated with the test compound SJP1602 at a concentration of 1 µM, and the kinase activity was determined using radiolabeled phosphate as a substrate. Lipid and atypical kinase assays were conducted using Eurofins’ homogeneous time-resolved fluorescence assay. The same panel of kinases was incubated with SJP1602 at a concentration of 1 µM, and the activity of lipid and atypical kinases was measured using this assay.

Lck(h) = target: T2, Lck(h) (Homo sapiens, UniProt P06239); details: read-out: residual kinase activity Lck(h)
T2 construct: purchased Eurofins KinaseProfiler
T2 sequence (P06239 whole entry): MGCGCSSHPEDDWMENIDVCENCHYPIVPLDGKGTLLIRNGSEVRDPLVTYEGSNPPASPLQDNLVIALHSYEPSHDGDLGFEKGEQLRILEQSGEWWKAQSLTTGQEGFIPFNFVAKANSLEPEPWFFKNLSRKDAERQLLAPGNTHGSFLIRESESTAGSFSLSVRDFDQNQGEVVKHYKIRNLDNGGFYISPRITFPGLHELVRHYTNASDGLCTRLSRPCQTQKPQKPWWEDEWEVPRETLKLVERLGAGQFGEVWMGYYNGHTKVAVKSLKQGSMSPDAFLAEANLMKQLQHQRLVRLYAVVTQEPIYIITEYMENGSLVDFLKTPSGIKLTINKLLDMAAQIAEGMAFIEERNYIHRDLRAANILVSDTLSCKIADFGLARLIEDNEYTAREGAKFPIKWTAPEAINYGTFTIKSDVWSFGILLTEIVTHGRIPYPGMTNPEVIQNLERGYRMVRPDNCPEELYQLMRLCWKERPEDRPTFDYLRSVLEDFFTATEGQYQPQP
Protocol: as §1

CDK1/cyclinB(h) = target: T3, CDK1/cyclinB(h) (Homo sapiens, UniProt P06493); details: read-out: residual kinase activity CDK1/cyclinB(h)
T3 construct: purchased Eurofins KinaseProfiler
T3 sequence (P06493 whole entry): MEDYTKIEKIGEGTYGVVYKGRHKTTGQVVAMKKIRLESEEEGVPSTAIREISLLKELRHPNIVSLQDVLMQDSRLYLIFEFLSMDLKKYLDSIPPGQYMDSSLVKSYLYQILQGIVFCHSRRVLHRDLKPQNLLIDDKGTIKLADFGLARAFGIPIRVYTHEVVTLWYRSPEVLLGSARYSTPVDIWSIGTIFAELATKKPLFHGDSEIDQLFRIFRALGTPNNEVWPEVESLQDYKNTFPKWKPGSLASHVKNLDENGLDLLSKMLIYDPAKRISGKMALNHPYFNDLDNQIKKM
T3 sequence (P14635 whole entry partner): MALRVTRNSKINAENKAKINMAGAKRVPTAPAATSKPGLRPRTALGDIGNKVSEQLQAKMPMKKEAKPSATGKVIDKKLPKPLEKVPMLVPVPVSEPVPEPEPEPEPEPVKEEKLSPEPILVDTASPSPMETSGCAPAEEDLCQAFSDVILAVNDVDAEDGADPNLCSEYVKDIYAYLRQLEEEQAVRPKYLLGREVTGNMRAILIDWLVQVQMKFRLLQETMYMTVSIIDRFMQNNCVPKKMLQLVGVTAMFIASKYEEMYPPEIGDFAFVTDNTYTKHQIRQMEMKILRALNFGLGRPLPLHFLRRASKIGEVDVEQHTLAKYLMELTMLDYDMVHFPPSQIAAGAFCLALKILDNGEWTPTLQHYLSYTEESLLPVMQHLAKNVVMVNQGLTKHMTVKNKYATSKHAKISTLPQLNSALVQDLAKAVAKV
Protocol: as §1

Flt3(h) = target: T4, Flt3(h) (Homo sapiens, UniProt P36888); details: read-out: residual kinase activity Flt3(h)
T4 construct: purchased Eurofins KinaseProfiler
T4 sequence (P36888 27-993): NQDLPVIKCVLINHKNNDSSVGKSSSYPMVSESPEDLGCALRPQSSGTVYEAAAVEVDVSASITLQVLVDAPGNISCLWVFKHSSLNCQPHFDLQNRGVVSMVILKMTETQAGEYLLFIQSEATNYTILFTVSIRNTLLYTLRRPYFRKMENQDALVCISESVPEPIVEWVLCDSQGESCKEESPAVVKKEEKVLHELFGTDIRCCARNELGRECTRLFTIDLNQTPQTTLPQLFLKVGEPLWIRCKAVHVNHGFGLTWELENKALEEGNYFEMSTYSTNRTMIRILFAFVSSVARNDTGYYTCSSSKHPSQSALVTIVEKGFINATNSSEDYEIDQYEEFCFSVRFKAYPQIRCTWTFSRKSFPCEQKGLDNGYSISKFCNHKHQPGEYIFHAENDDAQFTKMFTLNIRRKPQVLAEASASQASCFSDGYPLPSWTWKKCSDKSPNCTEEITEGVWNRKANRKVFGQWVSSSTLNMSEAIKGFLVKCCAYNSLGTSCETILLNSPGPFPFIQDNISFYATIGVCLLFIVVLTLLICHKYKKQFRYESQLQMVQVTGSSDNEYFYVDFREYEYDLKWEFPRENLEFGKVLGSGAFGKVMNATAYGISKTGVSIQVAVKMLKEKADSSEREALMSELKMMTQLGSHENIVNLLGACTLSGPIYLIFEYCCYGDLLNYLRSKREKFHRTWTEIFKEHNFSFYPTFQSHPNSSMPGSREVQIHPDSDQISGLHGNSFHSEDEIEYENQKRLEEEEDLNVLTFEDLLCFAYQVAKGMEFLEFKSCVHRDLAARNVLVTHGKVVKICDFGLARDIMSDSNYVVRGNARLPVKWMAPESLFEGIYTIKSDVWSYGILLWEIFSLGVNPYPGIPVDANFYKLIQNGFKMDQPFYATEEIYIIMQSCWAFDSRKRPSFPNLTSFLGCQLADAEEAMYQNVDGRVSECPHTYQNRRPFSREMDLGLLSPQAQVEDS
Protocol: as §1

CDK5/p35(h) = target: T5, CDK5/p35(h) (Homo sapiens, UniProt Q00535); details: read-out: residual kinase activity CDK5/p35(h)
T5 construct: purchased Eurofins KinaseProfiler
T5 sequence (Q00535 whole entry): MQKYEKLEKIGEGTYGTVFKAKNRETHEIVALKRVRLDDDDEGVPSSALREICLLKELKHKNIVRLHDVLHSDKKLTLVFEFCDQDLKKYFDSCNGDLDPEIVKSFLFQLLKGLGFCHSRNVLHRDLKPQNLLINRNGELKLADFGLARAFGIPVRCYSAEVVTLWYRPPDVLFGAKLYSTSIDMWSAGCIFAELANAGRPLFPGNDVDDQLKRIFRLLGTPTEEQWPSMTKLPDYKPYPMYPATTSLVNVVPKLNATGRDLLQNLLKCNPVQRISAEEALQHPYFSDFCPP
T5 sequence (Q15078 whole entry partner): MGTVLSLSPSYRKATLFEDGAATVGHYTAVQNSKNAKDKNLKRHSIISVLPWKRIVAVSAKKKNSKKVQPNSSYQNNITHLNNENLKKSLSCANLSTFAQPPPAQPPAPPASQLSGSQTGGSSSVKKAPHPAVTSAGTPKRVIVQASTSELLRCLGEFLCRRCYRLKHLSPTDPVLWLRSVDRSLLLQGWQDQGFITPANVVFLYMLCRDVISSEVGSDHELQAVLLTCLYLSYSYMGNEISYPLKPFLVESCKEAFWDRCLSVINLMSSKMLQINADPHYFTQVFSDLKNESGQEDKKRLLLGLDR
Protocol: as §1

[1] = target: T6, PI3 Kinase (p110a(E542K)/p85a)(h) (Homo sapiens, UniProt P42336, E542K); details: read-out: residual kinase activity PI3 Kinase (p110a(E542K)/p85a)(h)
T6 construct: purchased Eurofins KinaseProfiler
Protocol: as §1

Lck(h) activated = target: T7, Lck(h) activated (Homo sapiens, UniProt P06239); details: 1 µM
T7 construct: purchased Eurofins KinaseProfiler
T7 sequence (P06239 whole entry): as the sequence (P06239 whole entry) above
Protocol: as §1

DAPK1(h) = target: T8, DAPK1(h) (Homo sapiens, UniProt P53355); details: read-out: residual kinase activity DAPK1(h)
T8 construct: purchased Eurofins KinaseProfiler
T8 sequence (P53355 whole entry): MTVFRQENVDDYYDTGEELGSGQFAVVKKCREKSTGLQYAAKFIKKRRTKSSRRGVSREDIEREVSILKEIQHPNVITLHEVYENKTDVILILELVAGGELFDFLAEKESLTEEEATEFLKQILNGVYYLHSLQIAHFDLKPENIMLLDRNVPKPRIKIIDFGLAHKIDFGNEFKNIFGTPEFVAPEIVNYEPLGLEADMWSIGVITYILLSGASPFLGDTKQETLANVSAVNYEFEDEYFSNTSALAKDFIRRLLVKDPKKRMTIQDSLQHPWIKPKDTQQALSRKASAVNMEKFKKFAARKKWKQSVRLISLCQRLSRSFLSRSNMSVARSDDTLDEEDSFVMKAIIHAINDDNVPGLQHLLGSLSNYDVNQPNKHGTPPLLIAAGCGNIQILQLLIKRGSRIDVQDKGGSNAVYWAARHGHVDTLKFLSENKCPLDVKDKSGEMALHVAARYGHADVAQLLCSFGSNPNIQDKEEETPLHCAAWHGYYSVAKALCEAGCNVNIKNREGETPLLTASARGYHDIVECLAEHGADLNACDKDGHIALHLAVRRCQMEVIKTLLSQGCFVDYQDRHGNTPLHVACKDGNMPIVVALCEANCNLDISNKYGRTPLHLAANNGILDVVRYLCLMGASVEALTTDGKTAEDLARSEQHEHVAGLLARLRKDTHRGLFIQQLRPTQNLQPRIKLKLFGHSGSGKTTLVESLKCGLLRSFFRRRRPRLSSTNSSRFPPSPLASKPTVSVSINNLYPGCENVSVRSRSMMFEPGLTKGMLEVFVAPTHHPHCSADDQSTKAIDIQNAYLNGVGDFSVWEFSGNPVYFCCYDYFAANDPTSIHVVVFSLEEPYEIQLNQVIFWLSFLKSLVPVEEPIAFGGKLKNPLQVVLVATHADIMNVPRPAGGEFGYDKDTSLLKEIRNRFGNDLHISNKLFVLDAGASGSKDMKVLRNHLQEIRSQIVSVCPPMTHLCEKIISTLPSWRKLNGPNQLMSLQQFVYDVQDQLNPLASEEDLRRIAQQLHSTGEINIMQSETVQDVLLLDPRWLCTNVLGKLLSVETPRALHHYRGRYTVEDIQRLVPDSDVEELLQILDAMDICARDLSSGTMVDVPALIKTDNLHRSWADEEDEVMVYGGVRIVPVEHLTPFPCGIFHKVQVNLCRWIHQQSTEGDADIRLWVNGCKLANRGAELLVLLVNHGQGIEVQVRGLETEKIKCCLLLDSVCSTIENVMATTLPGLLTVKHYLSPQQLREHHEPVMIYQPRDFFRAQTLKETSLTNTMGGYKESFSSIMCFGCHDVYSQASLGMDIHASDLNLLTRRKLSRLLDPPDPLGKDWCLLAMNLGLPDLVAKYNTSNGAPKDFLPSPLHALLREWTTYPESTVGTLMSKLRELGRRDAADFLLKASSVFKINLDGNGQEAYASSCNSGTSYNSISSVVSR
Protocol: as §1

CDK2/cyclinA(h) = target: T9, CDK2/cyclinA(h) (Homo sapiens, UniProt P24941); details: read-out: residual kinase activity CDK2/cyclinA(h)
T9 construct: purchased Eurofins KinaseProfiler
Protocol: as §1

PKBα(h) = target: T10, PKBα(h) (Homo sapiens, UniProt P31749); details: read-out: residual kinase activity PKBα(h)
T10 construct: purchased Eurofins KinaseProfiler
T10 sequence (P31749 whole entry): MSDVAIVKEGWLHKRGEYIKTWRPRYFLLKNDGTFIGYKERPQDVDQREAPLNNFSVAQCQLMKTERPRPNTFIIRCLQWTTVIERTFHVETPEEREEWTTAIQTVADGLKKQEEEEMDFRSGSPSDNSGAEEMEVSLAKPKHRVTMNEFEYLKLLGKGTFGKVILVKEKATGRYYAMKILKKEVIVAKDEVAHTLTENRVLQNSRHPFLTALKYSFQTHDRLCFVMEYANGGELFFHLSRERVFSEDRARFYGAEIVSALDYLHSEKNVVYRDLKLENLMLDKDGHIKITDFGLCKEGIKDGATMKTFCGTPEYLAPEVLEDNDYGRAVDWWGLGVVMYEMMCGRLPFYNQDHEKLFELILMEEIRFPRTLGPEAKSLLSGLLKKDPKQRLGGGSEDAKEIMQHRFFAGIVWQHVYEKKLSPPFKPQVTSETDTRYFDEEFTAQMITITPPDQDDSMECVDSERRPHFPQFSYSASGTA
Protocol: as §1

Bmx(h) = target: T11, Bmx(h) (Homo sapiens, UniProt P51813); details: read-out: residual kinase activity Bmx(h)
T11 construct: purchased Eurofins KinaseProfiler
T11 sequence (P51813 1-675): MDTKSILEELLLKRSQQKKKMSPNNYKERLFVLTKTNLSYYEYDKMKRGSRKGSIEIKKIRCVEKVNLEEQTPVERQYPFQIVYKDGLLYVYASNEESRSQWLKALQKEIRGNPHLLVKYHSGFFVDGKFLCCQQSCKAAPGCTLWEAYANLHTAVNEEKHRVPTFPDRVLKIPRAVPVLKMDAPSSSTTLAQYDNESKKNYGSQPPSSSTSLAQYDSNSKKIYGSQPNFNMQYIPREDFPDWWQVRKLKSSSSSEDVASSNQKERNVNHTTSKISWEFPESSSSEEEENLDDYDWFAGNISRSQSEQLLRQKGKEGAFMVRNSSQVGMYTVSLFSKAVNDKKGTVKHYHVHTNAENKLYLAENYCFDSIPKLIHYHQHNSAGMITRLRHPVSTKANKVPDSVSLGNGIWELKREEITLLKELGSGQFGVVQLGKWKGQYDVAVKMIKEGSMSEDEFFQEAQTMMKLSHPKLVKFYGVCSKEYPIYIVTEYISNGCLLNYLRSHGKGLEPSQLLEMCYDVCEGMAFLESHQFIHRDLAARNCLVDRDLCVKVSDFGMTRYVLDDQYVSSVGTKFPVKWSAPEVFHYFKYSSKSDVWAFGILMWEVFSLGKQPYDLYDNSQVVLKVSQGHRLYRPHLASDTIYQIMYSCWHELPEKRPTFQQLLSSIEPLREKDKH
Protocol: as §1

ZIPK(h) = target: T12, ZIPK(h) (Homo sapiens, UniProt O43293); details: read-out: residual kinase activity ZIPK(h)
T12 construct: purchased Eurofins KinaseProfiler
T12 sequence (O43293 whole entry): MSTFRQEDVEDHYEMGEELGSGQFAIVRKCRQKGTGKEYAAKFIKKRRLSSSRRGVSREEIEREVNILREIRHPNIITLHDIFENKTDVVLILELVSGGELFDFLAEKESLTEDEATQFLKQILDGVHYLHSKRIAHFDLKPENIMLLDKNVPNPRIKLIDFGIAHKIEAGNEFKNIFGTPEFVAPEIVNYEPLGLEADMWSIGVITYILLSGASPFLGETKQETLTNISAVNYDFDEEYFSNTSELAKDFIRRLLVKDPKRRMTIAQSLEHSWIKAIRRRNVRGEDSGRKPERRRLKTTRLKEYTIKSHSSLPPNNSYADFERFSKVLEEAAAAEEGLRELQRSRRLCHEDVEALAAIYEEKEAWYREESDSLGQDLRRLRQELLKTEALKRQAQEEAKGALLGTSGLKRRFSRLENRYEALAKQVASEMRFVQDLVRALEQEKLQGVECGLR
Protocol: as §1

p70S6K(h) = target: T13, p70S6K(h) (Homo sapiens, UniProt P23443); details: read-out: residual kinase activity p70S6K(h)
T13 construct: purchased Eurofins KinaseProfiler
Protocol: as §1

T1 sequence (P15056 417-766 V600E limits assumed): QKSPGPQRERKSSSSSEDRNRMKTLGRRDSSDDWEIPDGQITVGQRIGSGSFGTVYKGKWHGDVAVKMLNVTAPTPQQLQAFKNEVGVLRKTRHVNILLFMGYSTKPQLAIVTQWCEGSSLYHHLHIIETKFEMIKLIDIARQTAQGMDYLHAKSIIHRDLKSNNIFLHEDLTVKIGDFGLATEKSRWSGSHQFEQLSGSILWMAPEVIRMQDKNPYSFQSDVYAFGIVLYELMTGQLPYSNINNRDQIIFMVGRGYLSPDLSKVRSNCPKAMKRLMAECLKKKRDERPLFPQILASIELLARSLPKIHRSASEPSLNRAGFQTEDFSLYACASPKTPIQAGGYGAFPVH

SMILES | remaining activity at 1 µM (B-Raf(V599E)(h)) | remaining activity at 1 µM (Lck(h)) | remaining activity at 1 µM (CDK1/cyclinB(h)) | remaining activity at 1 µM (Flt3(h)) | remaining activity at 1 µM (CDK5/p35(h)) | remaining activity at 1 µM [1] | residual kinase activity Lck(h) activated (Lck(h) activated) | remaining activity at 1 µM (DAPK1(h)) | remaining activity at 1 µM (CDK2/cyclinA(h)) | remaining activity at 1 µM (PKBα(h)) | remaining activity at 1 µM (Bmx(h)) | remaining activity at 1 µM (ZIPK(h)) | remaining activity at 1 µM (p70S6K(h))
CONC(=O)c1ccccc1Nc1cc(Nc2cc(C)nn2C(C)C)ncc1Cl [GSK2256098] | 67% | 110% | 97% | 108% | 94% | 97% | 90 | 83% | 94% | 105% | 105% | 93% | 69%
CNC(=O)c1cccc(C)c1Nc1nc(Nc2ccc(N3CCN(C4C5CC6CC4CC(O)(C6)C5)CC3)cc2OC)ncc1C(F)(F)F (stereo not drawn) [SJP1602, 2-((2-((4-(4-((2s,5r)-5-hydroxyadamantan-2-yl)piperazin-1-yl)-2-methoxyphenyl)amino)-5-(trifluoromethyl)pyrimidin-4-yl)amino)-N,3-dimethylbenzamide] | 105% | 63% | 88% | 77% | 84% | 101% | 107 | 108% | 85% | 100% | 84% | 100% | 124%
CNC(=O)c1ccc(Nc2ncc(C(F)(F)F)c(NCc3nccnc3N(C)S(C)(=O)=O)n2)cc1 [VS-6063, Defactinib] | 89% | 30% | 14% | 6% | 10% | 104% | 58 | 94% | 28% | 101% | 47% | 97% | 98%
